Structures can show the parent of a compound that is named as a salt.
The compounds below were run on MTT (mouse pheochromocytoma) (assay: IC50 of cell viability (ATP content)). Conditions: (24 or 48 h).
Procedure, shortened: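 Each well of a white 1536-well plate received 5 µl of MTT mouse pheochromocytoma cells at 200,000 cells/ml in DMEM containing 5% FBS and 1% horse serum. After overnight culture at 37°C, 5% CO2, cells were exposed for 24 or 48 hrs to 23 nl of library compound in DMSO, pinned at 8 final concentrations from 0.5 nM to 46 µM. CellTiter-Glo luminescence was read after 15 minutes, and IC50 was obtained from a four-parameter logistic fit of signals normalised to positive-control and DMSO wells.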

SMILES	IC50 of cell viability
COCC1=C(C(=O)OC(C)OC(=O)OC(C)C)N2C(=O)[C@@H](NC(=O)/C(=N/OC)c3csc(N)n3)[C@H]2SC1 (stereo not given in full) [CEFPODOXIME PROXETIL]	> 46 µM
CO/N=C(\C(=O)N[C@@H]1C(=O)N2C(C(=O)[O-])=C(C[n+]3cccc4c3CCCC4)CS[C@H]12)c1csc(N)n1 [CEFQUINOME sulfate]	> 46 µM
CO/N=C(\C(=O)N[C@@H]1C(=O)N2C(C(=O)O)=C(Cn3nnc(C)n3)CS[C@H]12)c1csc(N)n1 [CEFTERAM]	> 46 µM
[O-]C(=O)C/1=C(/CS[C@@H]2[C@H](NC(=O)C[N]3C=NN=N3)C(=O)N12)CSC4=NN=CS4 [CEFTEZOLE SODIUM]	> 46 µM
Nc1nc(/C(=C/CC(=O)O)C(=O)NC2C(=O)N3C(C(=O)O)=CCSC23)cs1 (stereo not given) [CEFTIBUTEN]	> 46 µM
CO/N=C(/C(=O)N[C@@H]1C(=O)N2C(C(=O)O)=C(CSC(=O)c3ccco3)CSC12)c1csc(N)n1 (stereo not given in full) [CEFTIOFUR CRYSTALLINE FREE ACID]	> 46 µM
CO/N=C(/C(=O)N[C@@H]1C(=O)N2C(C(=O)[O-])=CCS[C@H]12)c1csc(N)n1 [CEFTIZOXIME SODIUM]	> 46 µM
CO/N=C(/C(=O)NC1C(=O)N2C(C(=O)[O-])=C(CSc3nc(=O)c([O-])nn3C)CSC12)c1csc(N)n1.O.O.O.[Na+].[Na+] (stereo not given) [CEFTRIAXONE SODIUM TRIHYDRATE]	> 46 µM
CO/N=C(/C(=O)N[C@@H]1C(=O)N2C(C(=O)OC(C)OC(C)=O)=C(COC(N)=O)CS[C@H]12)c1ccco1 (stereo not given in full) [CEFUROXIME AXETIL]	> 46 µM
CCN(CC)C(=O)Nc1ccc(OC[C@H](O)CNC(C)(C)C)c(C(C)=O)c1 [CELIPROLOL HYDROCHLORIDE]	> 46 µM
OCC1O[C@H](O[C@H]2C(O)C(O)C(O)O[C@@H]2CO)C(O)C(O)C1O (stereo not given in full) [CELLOBIOSE (D[+])]	> 46 µM
[O-]C(=O)C/1=C(CSC2C(NC(=O)CC3=CC=CS3)C(=O)N12)\C[N+]4=CC=CC=C4 (stereo not given) [CEPHALORIDINE]	> 46 µM
COc1ccc2cc1Oc1ccc(cc1)CC1c3c(cc4c(c3Oc3cc5c(cc3OC)CCN(C)C5C2)OCO4)CCN1C (stereo not given) [CEPHARANTHINE]	> 46 µM
COCc1c(C(C)C)nc(C(C)C)c(/C=C/[C@@H](O)C[C@@H](O)CC(=O)[O-])c1-c1ccc(F)cc1 [CERIVASTATIN SODIUM]	> 46 µM
CCOC(=O)OCC/C(SC(=O)OCC)=C(\C)N(C=O)Cc1cnc(C)nc1N [CETOTIAMINE HYDROCHLORIDE]	> 46 µM
CCCCCCCCCCCCCCCCO [CETYL ALCOHOL]	> 46 µM
O=[S+]([O-])(O)c1cc(I)c(O)c2ncccc12 [CHINIOFONUM]	> 46 µM
CN(C)CC[C@@](O)(c1ccccc1)c1ccccc1Cl [CHLOPHEDIANOL HYDROCHLORIDE]	> 46 µM
OC(O)C(Cl)(Cl)Cl [CHLORAL HYDRATE]	> 46 µM
OC[C@@H](O)[C@H]1O[C@@H]2OC(C(Cl)(Cl)Cl)O[C@H]2[C@H]1O (stereo not given in full) [CHLORALOSUM]	> 46 µM

SMILES	IC50 of cell viability
OCC(O)[C@H]1O[C@@H]2O[C@H](C(Cl)(Cl)Cl)O[C@@H]2[C@H]1O (stereo not given in full) [CHLORALOSUM]	> 46 µM
O=C(O)CCCc1ccc(N(CCCl)CCCl)cc1 [CHLORAMBUCIL]	> 46 µM
O=C(NC(CO)C(O)c1ccc([N+](=O)[O-])cc1)C(Cl)Cl (stereo not given) [CHLORAMPHENICOL]	> 46 µM
CNC1=C[N+]([O-])=C(c2ccccc2)c2cc(Cl)ccc2N1 [CHLORDIAZEPOXIDE]	> 46 µM
C[N+](C)(C)CC[N+]1(C)Cc2c(Cl)c(Cl)c(Cl)c(Cl)c2C1 [CHLORISONDAMINE]	> 46 µM
Cc1ncsc1CCCl [CHLORMETHIAZOLE]	> 46 µM
CN1C(=O)CC[S+](=O)([O-])C1c1ccc(Cl)cc1 (stereo not given) [CHLORMEZANONE]	> 46 µM
Cc1ccc(Cl)c(O)c1 [CHLORO-M-CRESOL]	> 46 µM
CC(C)(O)C(Cl)(Cl)Cl [CHLOROBUTANOL]	> 46 µM
CC[NH+](CC)CCOC(=O)c1ccc(N)cc1Cl [CHLOROPROCAINE HYDROCHLORIDE]	> 46 µM
Cc1cc(O)c(C(C)C)cc1Cl [CHLOROTHYMOL]	> 46 µM
C=C1CC[C@H](O)C/C1=C/C=C1\CCC[C@]2(C)[C@@H]([C@H](C)CCCC(C)C)CC[C@@H]12 [CHOLECALCIFEROL]	> 46 µM
CC(C)CCC[C@@H](C)[C@H]1CC[C@H]2[C@@H]3CC=C4C[C@@H](O)CC[C@]4(C)[C@H]3CC[C@]12C [CHOLESTEROL]	> 46 µM
O=C(O)c1ccccn1 [CHROMIUM PICOLINATE]	> 46 µM
OC(=O)C/1=C/C(=O)C2=C(O1)C=CC=C2 [CHROMOCARB]	> 46 µM
COC(C(=O)C(O)C(C)O)C1Cc2cc3cc(OC4CC(OC5CC(O)C(OC)C(C)O5)C(OC(C)=O)C(C)O4)c(C)c(O)c3c(O)c2C(=O)C1OC1CC(OC2CC(OC3CC(C)(O)C(OC(C)=O)C(C)O3)C(O)C(C)O2)C(O)C(C)O1 (stereo not given) [CHROMOMYCIN A3]	> 46 µM
Nc1c(/N=N/c2ccc(-c3ccc(/N=N/c4cc(S(=O)(=O)[O-])c5ccccc5c4N)cc3)cc2)cc(S(=O)(=O)[O-])c2ccccc12 [CI DIRECT RED 28]	> 46 µM
O=C(NOCC1CC1)c1ccc(F)c(F)c1Nc1ccc(I)cc1Cl [CI-1040]	> 46 µM
CC(C)C(=O)OCC(=O)[C@@]12OC(C3CCCCC3)O[C@@H]1CC1C3CCC4=CC(=O)C=C[C@]4(C)C3[C@@H](O)C[C@@]12C (stereo not given in full) [CICLESONIDE]	> 46 µM
NC/1=N/C(=O)N(C[C@@H](CO)OC[P](O)(O)=O)/C=C1 [CIDOFOVIR]	> 46 µM

SMILES	IC50 of cell viability
CC1(C)CC1C(=O)N/C(=C/CCCCSCC(N)C(=O)[O][Na])C(=O)O (stereo not given) [CILASTATIN SODIUM]	> 46 µM
CC1(C)C[C@@H]1C(=O)N/C(=C\CCCCSC[C@H](N)C(=O)O)C(=O)O [CILASTATIN SODIUM]	> 46 µM
COc1ccc([C@]2(C#N)CC[C@H](C(=O)O)CC2)cc1OC1CCCC1 [CILOMILAST]	> 46 µM
O=C1CCc2cc(OCCCCc3nnnn3C3CCCCC3)ccc2N1 [CILOSTAZOL]	> 46 µM
CC(C)NCC(O)c1ccc(N)c(C#N)c1 (stereo not given) [CIMATEROL]	> 46 µM
CCC(CC)(CC(=O)Nc1cccc(/C=C/c2nc(C3CCC3)cs2)c1)C(=O)O [CINALUKASTUM]	> 46 µM
CN(C)CCCSc1ccccc1NC(=O)/C=C/c1ccccc1 [CINANSERIN]	> 46 µM
O=C(O)c1cc(-c2ccccc2)nc2ccccc12 [CINCHOPHENUM]	> 46 µM
COc1cc(/C=C/C(=O)N2CCN(CC(=O)N3CCCC3)CC2)cc(OC)c1OC [CINEPAZIDE MALEATE]	> 46 µM
O=C/C=C/c1ccccc1 [CINNAMALDEHYDE]	> 46 µM
O=C(O)/C=C/c1ccccc1 [CINNAMIC ACID]	> 46 µM
CCNC(=O)/C=C/c1cccc(Br)c1 [CINROMIDUM]	> 46 µM
C1C\N=C(\COC2=C(C=CC=C2)C3CC3)N1 [CIRAZOLINE]	> 46 µM
CCC1OC(=O)C(C)[C@@H](O[C@H]2C[C@@](C)(OC)C(O)C(C)O2)C(C)[C@@H](O[C@@H]2OC(C)CC(N(C)C)C2O)[C@@](C)(OC)CC(C)C(=O)[C@@H](C)C(O)[C@]1(C)O (stereo not given in full) [CLARITHROMYCIN]	> 46 µM
O=C(O)C1/C(=C/CO)OC2CC(=O)N21.[Li] (stereo not given) [CLAVULANATE LITHIUM]	> 46 µM
CC(C)(C)NCC(O)c1cc(Cl)c(N)c(Cl)c1 (stereo not given) [CLENBUTEROL]	> 46 µM
CCC[C@H]1C[C@H](C(=O)NC(C(C)Cl)C2O[C@@H](SC)C(OP(=O)(O)O)[C@@H](O)[C@@H]2O)N(C)C1 (stereo not given in full) [CLINDAMYCIN PO4]	> 46 µM
CCC(C)(Oc1ccc(C2(c3ccc(OC(C)(CC)C(=O)O)cc3)CCCCC2)cc1)C(=O)O (stereo not given) [CLINOFIBRATE]	> 46 µM
CN1C(=O)CC(=O)N(c2ccccc2)c2cc(Cl)ccc21 [CLOBAZAM]	> 46 µM
CC(Cc1ccccc1)NCc1ccccc1Cl (stereo not given) [CLOBENZOREX]	> 46 µM

— the supplement of paper PMC3974653
